Experimental findings from patent publication US20220387615A1, “COMPOSITIONS COMPRISING ENZYME CLEAVABLE LINKER PLATFORMS AND CONJUGATES THEREOF” (Danmarks Tekniske Universitet, priority 2019, published 2022) are described below.

Test [1] deals with Helix pomatia Type H-1. Briefly: Cleavage by Helix pomatia Type H-1. The test is classed as biochemical. As to conditions: phosphate buffer pH 5, 6 and 7.4; room temperature. The method, then: The above compound was dissolved in a minimum of DMSO and added to Helix pomatia Type H-1 in phosphate buffer solutions at pH 5, 6 and 7.4, respectively at room temperature. Aliquots were taken out at different time points and LC-MS and HPLC used for analysis. LCMS analysis required a small organic extraction of each aliquot in order to remove the protein prior to analysis. Analytical HPLC allowed direct injection and offers high sensitivity and reliability. Caffeine was included as an internal standard. The compound was almost fully hydrolysed at 5 min.

Test [2] deals with acid phosphatase. Briefly: Cleavage by acid phosphatase. The test is classed as biochemical. To be noted: phosphate buffer pH 5, 6 and 7.4; room temperature. The method, then: The above compound was dissolved in a minimum of DMSO and added to acid phosphatase in phosphate buffer solutions at pH 5, 6 and 7.4, respectively at room temperature. Aliquots were taken out at different time points and LC-MS and HPLC used for analysis. LCMS analysis required a small organic extraction of each aliquot in order to remove the protein prior to analysis. Analytical HPLC allowed direct injection and offers high sensitivity and reliability. Caffeine was included as an internal standard. The compound was almost fully hydrolysed at 1 hour.

In test [3] the test system is amano lipase. Briefly: Cleavage by Amano lipase. It counts as biochemical, Pseudomonas fluorescens. As to conditions: phosphate buffer pH 5, 6 and 7.4; room temperature. The method, then:
The above compound was dissolved in a minimum of DMSO and added to amano lipase in phosphate buffer solutions at pH 5, 6 and 7.4, respectively at room temperature. Aliquots were taken out at different time points and LC-MS and HPLC used for analysis. LCMS analysis required a small organic extraction of each aliquot in order to remove the protein prior to analysis. Analytical HPLC allowed direct injection and offers high sensitivity and reliability. Caffeine was included as an internal standard. The compound was almost fully hydrolysed at 5 min.

Test [4] deals with Amano Lipase from Pseudomonas fluorescens. Briefly: Lipase test of linker X8: cleavage and model drug release. It counts as biochemical. To be noted: for time to full conversion to X10 and X11: 1 mg/mL lipase, room temperature. The method, then:
Compound X8 was exposed to lipase in phosphate buffered solutions at pH 6 and 7.4. […] The pH 6 and 7.4 tests were conducted to determine if any difference in the rate of intramolecular lactonisation would be observed. Initial tests involved incubation of the linker (1 mM in 2% DMSO/buffer) with 1 mg/mL lipase (>20 U/mL) at room temperature (FIG. 16). Caffeine was included as an internal standard. Aliquots were taken out at different time points and LC-MS and HPLC used for analysis.

With `O=C(NCCNC(=O)c1ccccc1)OCc1ccc(OS(=O)(=O)O)cc1`, in test [1], the “time at which the compound was almost fully hydrolysed” value is recorded as 5 min. On to `O=C(NCCOP(=O)(O)O)c1ccccc1`, for which the “time at which the compound was almost fully hydrolysed” value in test [2] worked out at 1 h. Consider `CCCCCCCC(=O)OCCNC(=O)c1ccccc1`, for which the “time at which the compound was almost fully hydrolysed” value in test [3] was 5 min. `CCCCCCCC(=O)OCCN(CC(=O)OCC(=O)c1ccc(Br)cc1)C(=O)c1ccccc1` [Example X8, 2-(N-(2-(2-(4-bromophenyl)-2-oxoethoxy)-2-oxoethyl)benzamido)ethyl octanoate]: the “non-linear conversion to products, duration” value in test [4] (FIG. 17, conditions not given) was 114 min. The “time to full conversion to X10 and X11” value in test [4] (pH 6) is listed as 60 min; in test [4] (pH 7.4, linker 1 mM in 2% DMSO/buffer), less than 15 min.
